ChEMBL document CHEMBL4680174, “Synthesis, biological evaluation and in silico modeling of novel integrase strand transfer inhibitors (INSTIs)” (Eur J Med Chem, 2020)
≈ marks a conversion by molar mass, not a printed value.

Columns and labels:
[1] = Stability in human liver microsomes assessed as parent compound remaining at 1 uM up to 24 hrs by LC-MS/MS analysis; assay type: ADME, Microsome; details: read-out: Stabilty
[2] = Tmax in Sprague-Dawley rat at 1 mg/kg, iv up to 24 hrs by LC-MS/MS analysis; assay type: ADME, organism-based; details: in vivo
[3] = biological target: Cytochrome P450 2C19 (Homo sapiens, UniProt P33261); assay: Inhibition of CYP2C19 in human liver microsomes using S-mephenytoin as substrate incubated for 30 mins by LC-MS/MS analysis; assay type: ADME
Chain of Cytochrome P450 2C19 (P33261 whole entry): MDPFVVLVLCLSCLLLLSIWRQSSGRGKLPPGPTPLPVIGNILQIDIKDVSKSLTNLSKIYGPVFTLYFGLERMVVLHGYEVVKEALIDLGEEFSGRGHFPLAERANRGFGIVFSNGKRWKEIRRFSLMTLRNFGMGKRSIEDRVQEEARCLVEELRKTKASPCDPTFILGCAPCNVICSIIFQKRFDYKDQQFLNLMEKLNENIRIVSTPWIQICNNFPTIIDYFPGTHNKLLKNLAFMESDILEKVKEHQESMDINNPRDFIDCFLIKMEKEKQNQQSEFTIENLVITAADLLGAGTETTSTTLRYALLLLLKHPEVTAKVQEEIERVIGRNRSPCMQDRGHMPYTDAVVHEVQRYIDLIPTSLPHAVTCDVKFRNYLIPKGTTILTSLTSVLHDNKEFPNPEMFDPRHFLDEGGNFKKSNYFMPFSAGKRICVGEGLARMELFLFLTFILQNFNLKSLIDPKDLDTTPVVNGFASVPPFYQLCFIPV

[4] = Cytotoxicity against human CEM-SS cells assessed as reduction in cell viability by XTT assay; assay type: cell-based
[5] = Protein binding in human plasma at 1 uM after 4 hrs by LC-MS/MS analysis; assay type: ADME, cell-free; details: read-out: PPB
[6] = Thermodynamic solubility of compound in plON buffer at 2 mg after 24 hrs; assay type: physicochemical; details: read-out: Therm_solubility
[7] = Protein binding in rat plasma at 1 uM after 4 hrs by LC-MS/MS analysis; assay type: ADME, cell-free; details: read-out: PPB (converted)
[8] = Drug concentration in Sprague-Dawley rat at 5 mg/kg, po after 8 hrs by LC-MS/MS analysis; assay type: ADME, organism-based; details: in vivo, read-out: Drug uptake
[9] = biological target: Cytochrome P450 2C9 (Homo sapiens, UniProt P11712); assay: Inhibition of CYP2C9 in human liver microsomes using tolbutamide as substrate incubated for 30 mins by LC-MS/MS analysis; assay type: ADME
Chain of Cytochrome P450 2C9 (P11712 whole entry): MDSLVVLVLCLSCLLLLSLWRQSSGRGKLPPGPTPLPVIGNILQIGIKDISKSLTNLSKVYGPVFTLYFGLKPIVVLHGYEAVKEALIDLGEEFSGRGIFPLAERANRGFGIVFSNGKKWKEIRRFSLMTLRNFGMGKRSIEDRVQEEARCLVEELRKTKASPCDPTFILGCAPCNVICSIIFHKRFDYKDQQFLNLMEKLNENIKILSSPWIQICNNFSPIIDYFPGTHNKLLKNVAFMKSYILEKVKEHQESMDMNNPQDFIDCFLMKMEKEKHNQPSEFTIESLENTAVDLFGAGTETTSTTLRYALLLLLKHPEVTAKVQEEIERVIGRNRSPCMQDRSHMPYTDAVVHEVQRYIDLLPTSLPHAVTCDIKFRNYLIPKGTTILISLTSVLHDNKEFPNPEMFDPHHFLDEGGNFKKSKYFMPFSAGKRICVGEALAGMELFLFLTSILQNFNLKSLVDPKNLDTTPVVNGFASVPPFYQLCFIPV

[10] = Stability in human plasma assessed as parent compound remaining at 1 uM up to 24 hrs by LC-MS/MS analysis; assay type: ADME, cell-free; details: read-out: Stabilty
[11] = Elimination rate constant Sprague-Dawley rat at 1 mg/kg, iv up to 24 hrs by LC-MS/MS analysis; assay type: ADME, organism-based; details: in vivo
[12] = Tmax in Sprague-Dawley rat at 5 mg/kg, po up to 24 hrs by LC-MS/MS analysis; assay type: ADME, organism-based; details: in vivo
[13] = Thermodynamic solubility of compound in water at 2 mg after 24 hrs; assay type: physicochemical; details: read-out: Therm_solubility
[14] = Stability in rat liver microsomes assessed as parent compound remaining at 1 uM up to 24 hrs by LC-MS/MS analysis; assay type: ADME, Microsome; details: read-out: Stabilty
[15] = Oral bioavailability in Sprague-Dawley rat at 5 mg/kg up to 24 hrs by LC-MS/MS analysis; assay type: ADME, organism-based; details: in vivo
[16] = Elimination rate constant Sprague-Dawley rat at 5 mg/kg, po up to 24 hrs by LC-MS/MS analysis; assay type: ADME, organism-based; details: in vivo
[17] = biological target: T1, Cytochrome P450 2C8 (Homo sapiens, UniProt P10632); assay: Inhibition of CYP2C8 in human liver microsomes using amodiaquine as substrate incubated for 30 mins by LC-MS/MS analysis; assay type: ADME
T1 sequence (P10632 whole entry): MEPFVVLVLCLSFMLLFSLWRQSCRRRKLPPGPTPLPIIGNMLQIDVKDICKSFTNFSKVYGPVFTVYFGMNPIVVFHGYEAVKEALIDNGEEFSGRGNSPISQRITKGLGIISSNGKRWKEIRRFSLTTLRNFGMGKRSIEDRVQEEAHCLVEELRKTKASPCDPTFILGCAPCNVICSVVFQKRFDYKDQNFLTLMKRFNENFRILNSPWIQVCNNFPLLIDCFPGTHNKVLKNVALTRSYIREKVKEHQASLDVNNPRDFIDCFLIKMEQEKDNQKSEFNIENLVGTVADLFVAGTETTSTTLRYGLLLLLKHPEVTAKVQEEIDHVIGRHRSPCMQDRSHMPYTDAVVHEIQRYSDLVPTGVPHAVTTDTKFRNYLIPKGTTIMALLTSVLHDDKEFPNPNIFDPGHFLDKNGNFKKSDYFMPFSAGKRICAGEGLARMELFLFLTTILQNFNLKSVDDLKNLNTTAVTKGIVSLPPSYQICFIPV

[18] = system: Human immunodeficiency virus 1; assay: Antiviral activity against HIV1 3B infected in human CEM-SS cells assessed as reduction in cytopathic effect after 4 days; assay type: functional, organism-based; details: cem-ss
[19] = Drug concentration in Sprague-Dawley rat at 1 mg/kg, iv after 24 hrs by LC-MS/MS analysis; assay type: ADME, organism-based; details: in vivo, read-out: Drug uptake
[20] = Drug concentration in Sprague-Dawley rat at 1 mg/kg, iv after 8 hrs by LC-MS/MS analysis; assay type: ADME, organism-based; details: in vivo, read-out: Drug uptake
[21] = biological target: T2, Cytochrome P450 1A2 (Homo sapiens, UniProt P05177); assay: Inhibition of CYP1A2 in human liver microsomes using phenacetin as substrate incubated for 30 mins by LC-MS/MS analysis; assay type: ADME
T2 sequence (P05177 whole entry): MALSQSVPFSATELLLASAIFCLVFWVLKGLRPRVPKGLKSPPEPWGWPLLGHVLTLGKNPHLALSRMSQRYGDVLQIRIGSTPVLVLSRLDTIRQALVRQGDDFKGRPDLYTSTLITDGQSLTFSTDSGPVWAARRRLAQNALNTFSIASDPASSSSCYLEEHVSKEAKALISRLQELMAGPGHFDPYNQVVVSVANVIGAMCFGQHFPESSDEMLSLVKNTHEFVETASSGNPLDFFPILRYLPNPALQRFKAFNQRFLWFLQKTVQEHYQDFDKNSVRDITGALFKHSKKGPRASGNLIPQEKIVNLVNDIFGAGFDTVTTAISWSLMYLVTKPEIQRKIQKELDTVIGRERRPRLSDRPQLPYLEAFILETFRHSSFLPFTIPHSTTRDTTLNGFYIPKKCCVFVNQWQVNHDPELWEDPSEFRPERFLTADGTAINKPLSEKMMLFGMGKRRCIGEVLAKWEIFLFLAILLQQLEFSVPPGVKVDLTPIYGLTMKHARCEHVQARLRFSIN

[22] = Stability in rat plasma assessed as parent compound remaining at 1 uM up to 24 hrs by LC-MS/MS analysis; assay type: ADME, cell-free; details: read-out: Stabilty
[23] = biological target: Cytochrome P450 2D6 (Homo sapiens, UniProt P10635); assay: Inhibition of CYP2D6 in human liver microsomes using dextromethorphan as substrate incubated for 30 mins by LC-MS/MS analysis; assay type: ADME
Chain of Cytochrome P450 2D6 (P10635 whole entry): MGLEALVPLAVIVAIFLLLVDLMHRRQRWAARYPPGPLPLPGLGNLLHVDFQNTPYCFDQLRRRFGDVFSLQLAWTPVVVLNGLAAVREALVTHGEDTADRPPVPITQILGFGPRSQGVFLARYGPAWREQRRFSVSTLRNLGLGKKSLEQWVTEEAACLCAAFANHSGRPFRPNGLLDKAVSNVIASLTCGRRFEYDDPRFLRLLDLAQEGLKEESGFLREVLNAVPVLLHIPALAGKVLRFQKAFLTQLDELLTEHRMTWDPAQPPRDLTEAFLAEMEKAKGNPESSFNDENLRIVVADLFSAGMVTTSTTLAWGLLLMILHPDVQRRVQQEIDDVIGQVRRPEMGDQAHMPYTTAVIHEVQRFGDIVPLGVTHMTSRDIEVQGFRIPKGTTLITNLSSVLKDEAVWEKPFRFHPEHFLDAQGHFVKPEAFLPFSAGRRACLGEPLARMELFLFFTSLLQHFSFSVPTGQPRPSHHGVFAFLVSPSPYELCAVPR

[24] = Drug concentration in Sprague-Dawley rat at 5 mg/kg, po after 24 hrs by LC-MS/MS analysis; assay type: ADME, organism-based; details: in vivo, read-out: Drug uptake
[25] = biological target: Cytochrome P450 3A4 (Homo sapiens, UniProt P08684); assay: Inhibition of CYP3A4 in human liver microsomes using midazolam as substrate incubated for 30 mins by LC-MS/MS analysis; assay type: ADME
Chain of Cytochrome P450 3A4 (P08684 whole entry): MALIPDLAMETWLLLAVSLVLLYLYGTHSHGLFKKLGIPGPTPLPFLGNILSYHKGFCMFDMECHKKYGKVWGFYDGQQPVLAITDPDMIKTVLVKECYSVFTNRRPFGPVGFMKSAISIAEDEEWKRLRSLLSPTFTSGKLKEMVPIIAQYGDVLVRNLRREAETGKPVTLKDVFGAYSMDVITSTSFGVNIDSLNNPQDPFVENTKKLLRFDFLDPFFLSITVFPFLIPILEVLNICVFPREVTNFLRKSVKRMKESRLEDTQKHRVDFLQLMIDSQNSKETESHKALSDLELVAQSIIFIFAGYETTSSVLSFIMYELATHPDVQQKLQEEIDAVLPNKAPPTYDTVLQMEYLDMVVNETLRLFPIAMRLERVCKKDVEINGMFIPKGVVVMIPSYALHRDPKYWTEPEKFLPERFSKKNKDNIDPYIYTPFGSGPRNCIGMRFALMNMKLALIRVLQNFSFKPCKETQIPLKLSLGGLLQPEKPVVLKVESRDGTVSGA

[26] = Selectivity index, ratio of CC50 for human CEM-SS cells to EC50 for Antiviral activity against HIV1 3B infected in human CEM-SS cells; assay type: toxicity, cell-based

C[C@H]1CO[C@@H]2Cn3cc(C(=O)NCc4ccc(F)nc4F)c(=O)c(O)c3C(=O)N12
remaining at 24 h, 1 µM [1]: 84%
Tmax [2]: 4.8 min
IC50 [3]: > 10 µM
CC50 [4]: > 0.01 µM
fraction unbound at 4 h, 1 µM [5]: 0.001
solubility thermodynamic at 24 h [6]: 232 µg/mL (≈ 571 µM)
fraction unbound at 4 h, 1 µM [7]: 0.011
concentration at 8 h [8]: 7910 ng/mL
IC50 [9]: > 10 µM
remaining at 24 h, 1 µM [10]: 95%
k el at 24 h [11]: 8.33e-06 s⁻¹
Tmax [12]: 3 h
solubility thermodynamic at 24 h [13]: 269 µg/mL (≈ 662 µM)
remaining at 24 h, 1 µM [14]: 83.8%
bioavailability [15]: 17.5%
k el at 24 h [16]: 1.11e-05 s⁻¹
IC50 [17]: > 10 µM
EC50 [18]: 0.00024 µM
concentration at 24 h [19]: 5430 ng/mL
concentration at 8 h [20]: 8620 ng/mL
IC50 [21]: > 10 µM
remaining at 24 h, 1 µM [22]: 94.5%
IC50 [23]: > 10 µM
concentration at 24 h [24]: 4440 ng/mL
IC50 [25]: > 10 µM
Ratio CC50/EC50 [26]: > 41.7
